Source: patent US4378358A, “Benzothiazinopyrazoles having pharmacological activity” (Mediolanum Farmaceutici s.r.l., priority 1980, dated 1983)
Read-outs that look alike come from different tables or passages of the source.

Experiments:
[1] = system: phenylquinone writhes; assay: Analgesic activity according to Hendershot et al., phenylquinone writhes, modified; assay type: in vivo, mouse
Method: Analgesic activity according to HENDERSHOT et al., Jour. Pharm.
The test was modified by numbering the writhes only along the time interval from 5 to 15 minutes since the injection of phenylquinone. The injection was made 2 hours after the oral administration of the compound to be tested.
Animals: 8 female mice for each group, average body weight: 25g

[2] = system: Mouse
[3] = system: rats; assay: in vivo; conditions: 5 days, rats, per os
From the text: (§1) Five days subacute toxicity in rats per os
(§2) Animals: 5 female rats for each group, average body weight: 150g.

[4] = in vivo; conditions: rat, in vivo, po; for mortality at 120 h: read-out: % of dead animals; for mortality: read-out: % of dead animals per day
From the text: as §1, §2

[5] = system: pyresis; assay: Antipyretic activity according to Burn et al.; assay type: in vivo, rat; conditions: for Reduction of the pyresis at hour 4: female rats
From the text: Animals: 6 female rats for each group, average body weight 200 g.

[6] = system: rats; assay type: in vivo, rat; conditions: for Average number of lesions per animal / Gastrolesive effect, relative potency to naproxen / Gastrolesive effect, relative potency to piroxicam: single oral administration, male rats
Method: The test was modified by increasing the fast period to 70 hours and giving the total dose of substance in one single oral administration.
Animals: 10 male rats for each group, average body weight: 150g.

[7] = in vivo; assay type: in vivo; conditions: rat, in vivo, po; read-out: LD 50 (Litchfield and Wilcoxon)
[8] = system: Rat; assay: in vivo; assay type: in vivo
[9] = in vivo; conditions: mouse, po
[10] = system: carrageenin paw edema; assay: Antiinflammatory activity according to Winter et al., carrageenin paw edema, modified; assay type: in vivo, rat
Method: Antiinflammatory activity according to WINTER et al., Proc. Soc. Exp. Biol. Med.; 111, 544; 1962.
The test was modified in that the injection of carrageenin and the administration of the compound by gastric gavage were carried out simultaneously and the paw edema was measured at the plethysmograph after 4 hours.
Animals: 6 female rats for each group, average body weight: 150g

[11] = Mus musculus, 50 mg/kg oral, 2 h before phenylquinone, 5-15 min, female mice
[12] = Mus musculus, 100 mg/kg oral, 2 h before phenylquinone, 5-15 min, female mice
[13] = 50 mg/g (so in the source) per os
[14] = 100 mg/g (so in the source) per os
[15] = 100 mg/kg (maximum tested dose)
[16] = Rattus norvegicus, po, 4 h, 50 mg/kg per os, female rats, read-out: % inhibition of the edema after 4 hours
[17] = Rattus norvegicus, po, 4 h, 100 mg/kg per os, female rats, read-out: % inhibition of the edema after 4 hours

Structure (SMILES) | Analgesic relative potency to naproxen ([1]; 50 mg/kg oral) | Analgesic relative potency to piroxicam ([1]; 50 mg/kg oral) | Analgesic relative potency to naproxen ([1]; 100 mg/kg oral) | Analgesic relative potency to piroxicam ([1]; 100 mg/kg oral) | inhibition in vivo at 50 mg/kg [1, 11] | inhibition in vivo at 100 mg/kg [1, 12] | Subacute toxicity, relative ratio to naproxen [3] | Subacute toxicity, relative ratio to piroxicam [3] | mortality at 120 h ([4]; 200 mg/kg/day) | Antipyretic relative potency to naproxen [5, 13] | Antipyretic relative potency to piroxicam [5, 13] | Reduction of the pyresis at hour 4 [5, 13] | Antipyretic relative potency to naproxen [5, 14] | Antipyretic relative potency to piroxicam [5, 14] | Reduction of the pyresis at hour 4 [5, 14] | Average number of lesions per animal [6, 15] | Gastrolesive effect, relative potency to naproxen [6] | Gastrolesive effect, relative potency to piroxicam [6] | LD50 [7] | LD50 [9] | also measured
CN1c2c(C(=O)NCCCNC3CCCCC3)nn(-c3cccc(F)c3)c2-c2ccccc2S1(=O)=O [Compound I-23] | 1.6 | 1.2 | 2.4 | 1.7 | 54% | 79% | 4 | 10 | 0% | 1.1 | 1.3 | 1.20 °C | 1.3 | 1.6 | 1.42 °C | 0 | > 20 | 100 | 1200 mg/kg | 720 mg/kg | LD 50, relative ratio to piroxicam ([2]; in vivo): 2.0; LD 50, relative ratio to naproxen ([8]; per os): 2.2; LD 50, relative ratio to piroxicam ([8]; per os): 4.4; Antiinflammatory relative potency to naproxen ([10]; 50 mg/kg per os): 1.3; Antiinflammatory relative potency to piroxicam ([10]; 50 mg/kg per os): 0.6; Antiinflammatory relative potency to naproxen ([10]; 100 mg/kg per os): 1.8; Antiinflammatory relative potency to piroxicam ([10]; 100 mg/kg per os): 0.8; inhibition in vivo at 50 mg/kg [10, 16]: 27%; inhibition in vivo at 100 mg/kg [10, 17]: 38%
CN(C)CCCNC(=O)c1nn(-c2ccccc2)c2c1N(C)S(=O)(=O)c1ccccc1-2 [Compound I-2] | 2.1 | 1.5 | 2.8 | 2.0 | 68% | 92% | 4 | 10 | 0% | 0.5 | 0.7 | 0.58 °C | 0.8 | 1.0 | 0.89 °C | 0 | > 20 | 100 | 2400 mg/kg | 1380 mg/kg | LD 50, relative ratio to naproxen ([2]; per os): 1.1; LD 50, relative ratio to piroxicam ([2]; per os): 3.8; LD 50, relative ratio to naproxen ([8]; per os): 4.4; LD 50, relative ratio to piroxicam ([8]; per os): 8.9; Antiinflammatory relative potency to naproxen ([10]; 50 mg/kg per os): 0.6; Antiinflammatory relative potency to piroxicam ([10]; 50 mg/kg per os): 0.3; Antiinflammatory relative potency to naproxen ([10]; 100 mg/kg per os): 0.8; Antiinflammatory relative potency to piroxicam ([10]; 100 mg/kg per os): 0.4; inhibition in vivo at 50 mg/kg [10, 16]: 12%; inhibition in vivo at 100 mg/kg [10, 17]: 17%
CCN1CCCC1CNC(=O)c1nn(-c2ccccc2)c2c1N(C)S(=O)(=O)c1ccccc1-2 (stereo not drawn) [Compound I-24] | 0.9 | 0.7 | 1.4 | 1.0 | 30% | 47% | 4 | 10 | 0% | 0.7 | 0.9 | 0.81 °C | 1.1 | 1.4 | 1.24 °C | 0 | > 20 | 100 | 1060 mg/kg | 760 mg/kg | LD 50, relative ratio to piroxicam ([2]; per os): 2.1; LD 50, relative ratio to piroxicam ([8]; per os): 3.9; Antiinflammatory relative potency to naproxen ([10]; 50 mg/kg per os): 1.8; Antiinflammatory relative potency to piroxicam ([10]; 50 mg/kg per os): 0.8; Antiinflammatory relative potency to naproxen ([10]; 100 mg/kg per os): 2.1; Antiinflammatory relative potency to piroxicam ([10]; 100 mg/kg per os): 1.0; inhibition in vivo at 50 mg/kg [10, 16]: 38%; inhibition in vivo at 100 mg/kg [10, 17]: 45%
COc1ccc2cc([C@H](C)C(=O)O)ccc2c1 [Naproxen, naproxen, reference compound] | – | – | – | – | – | – | – | – | – | – | – | – | – | – | – | – | – | – | – | – | inhibition in vivo at 30 mg/kg ([1]; Mus musculus, 30 mg/kg oral, 2 h before phenylquinone, 5-15 min, female mice): 33%; Reduction of the pyresis at hour 4 ([5]; 30 mg/g (so in the source) per os): 1.12 °C; Average number of lesions per animal ([6]; 5 mg/kg): 0; Average number of lesions per animal ([6]; 7.5 mg/kg): 0.9; Gastric ulcerogenicity (in words) ([6]; rats): considerable gastrolesive power; inhibition in vivo at 30 mg/kg ([10]; Rattus norvegicus, po, 4 h, 30 mg/kg per os, female rats, read-out: % inhibition of the edema after 4 hours): 21%
CN1c2c(C(=O)NCCCNC3CCCCC3)nn(-c3ccccc3)c2-c2ccccc2S1(=O)=O [Compound I-4] | 1.3 | 0.9 | 1.8 | 1.3 | 42% | 59% | 2 | 5 | 20% | 1.2 | 1.6 | 1.40 °C | 1.3 | 1.7 | 1.47 °C | 0 | > 20 | 100 | 1090 mg/kg | 720 mg/kg | LD 50, relative ratio to piroxicam ([2]; in vivo): 2.0; mortality at 120 h ([4]; 100 mg/kg/day): 0%; mortality ([4]; 100 mg/kg/day): 0%; mortality ([4]; 200 mg/kg/day): 4%; LD 50, relative ratio to piroxicam ([8]; in vivo): 4.0; Antiinflammatory relative potency to naproxen ([10]; 50 mg/kg per os): 1.7; Antiinflammatory relative potency to piroxicam ([10]; 50 mg/kg per os): 0.8; Antiinflammatory relative potency to naproxen ([10]; 100 mg/kg per os): 2.4; Antiinflammatory relative potency to piroxicam ([10]; 100 mg/kg per os): 1.1; inhibition in vivo at 50 mg/kg [10, 16]: 36%; inhibition in vivo at 100 mg/kg [10, 17]: 50%
CCN(CC)CCNC(=O)c1nn(-c2ccccc2)c2c1N(C)S(=O)(=O)c1ccccc1-2 [Compound I-1, 2-methyl-5-phenyl-1,2-benzothiazino[3,4-d]pyrazole-3-yl-carboxylic acid, 2-(N,N-diethylamino)ethylamide,S,S-dioxide] | 1.3 | 0.9 | 2.2 | 1.6 | 43% | 72% | 4 | 10 | 0% | 0.8 | 1.0 | 0.86 °C | 1.3 | 1.6 | 1.44 °C | 0 | > 20 | 100 | 2700 mg/kg | 2850 mg/kg | LD 50, relative ratio to naproxen ([2]; per os): 2.3; LD 50, relative ratio to piroxicam ([2]; per os): 7.9; LD 50, relative ratio to piroxicam ([8]; in vivo): 10.0; Antiinflammatory relative potency to naproxen ([10]; 50 mg/kg per os): 0.5; Antiinflammatory relative potency to piroxicam ([10]; 50 mg/kg per os): 0.2; Antiinflammatory relative potency to naproxen ([10]; 100 mg/kg per os): 0.8; Antiinflammatory relative potency to piroxicam ([10]; 100 mg/kg per os): 0.4; inhibition in vivo at 50 mg/kg [10, 16]: 10%; inhibition in vivo at 100 mg/kg [10, 17]: 16%
